{
  "source": "patent US7033802B1",
  "about": "“Penicillin binding protein gene and process for producing L-glutamic acid” (Ajinomoto Co., Inc., priority 1998, dated 2006)",
  "key": {"[1]": {"tested_on": "PBP3", "experiment": "Inhibition by mecillinam of binding of 14C-penicillin G to PBPs in membrane fraction (SDS-PAGE, image analyzer)", "parameters": "species or system Brevibacterium lactofermentum", "settings": "mecillinam added at various concentrations before the penicillin binding reaction; membrane fraction of ATCC 13869", "procedure": "PBP is considered to be a membrane protein. A membrane fraction of a coryneform bacterium was prepared as follows. A wild strain of coryneform bacteria, Brevibacterium lactofermentum ATCC 13869 strain, was inoculated to 20 ml of A medium (containing 10 g of polypeptone, 5 g of yeast extract, 5 g of NaCl and 5 g of glucose in 1 L of water), cultured at 30° C. with shaking, and harvested when the absorption at 660 nm reached about 1.0. The cells were washed in […] sodium phosphate buffer, pH 7.0. Then, the buffer was added with glass beads and sonicated to disrupt the cells. […] Protein concentration of this membrane fraction was determined by using a protein quantification kit (produced by PIERCE, Micro BCA Protein assay kit), and found to be 4 mg/ml.\nA volume of 30 μl of the prepared membrane fraction was added with 3 μl of ^14C-penicillin G (produced by Amersham) and allowed to react at 30° C. for 10 minutes. […] A sample of this fraction was subjected to SDS-PAGE using gel containing 10% of polyacrylamide, and the gel was fixed, dried and analyzed with an image analyzer BAS2000 produced by Fuji Photo Film Co., Ltd. As a result, three bands were detected at 110 kDa, 100 kDa and 60 kDa, and designated as PBP1, PBP2 and PBP3, respectively. […]"}, "[2]": {"tested_on": "Brevibacterium lactofermentum ATCC 13869", "experiment": "Glutamic acid production by coryneform bacterium induced by addition of mecillinam", "format": "cell-based", "settings": "A medium, 30° C., added after 2 hours, further cultured 8 hours", "procedure": "The Brevibacterium lactofermentum ATCC 13869 strain was inoculated to the aforementioned A medium, cultured at 30° C. for 2 hours with shaking, then added with 0.01 μM to 100 μM of mecillinam, and further cultured for 8 hours with shaking. Subsequently, glutamic acid concentration in the medium was measured by using Biotech Analyzer AS210 (produced by Asahi Chemical Industry Co., Ltd.) (Table 1)."}},
  "note": "“Also recorded” adds a separate entry of the source.",
  "data": [
    {"smiles": "CC1(C)S[C@@H]2[C@H](/N=C/N3CCCCCC3)C(=O)N2[C@H]1C(=O)O", "note": "[mecillinam]", "values": [
      {"measurement": "inhibition of binding of PBP with isotope (14C) labeled penicillin G / selectivity among PBP1, PBP2, PBP3", "setting": "[1]", "result": "only PBP3 was inhibited; also recorded: selectively binds to PBP3"},
      {"measurement": "Concentration of L-glutamic acid", "setting": "[2]; 0.1 μM added mecillinam", "result": 0, "unit": "mg/L"},
      {"measurement": "Concentration of L-glutamic acid", "setting": "[2]; 1.0 μM added mecillinam", "result": 0, "unit": "mg/L"},
      {"measurement": "Concentration of L-glutamic acid", "setting": "[2]; 10 μM added mecillinam", "result": 0, "unit": "mg/L"},
      {"measurement": "Concentration of L-glutamic acid", "setting": "[2]; 100 μM added mecillinam", "result": 575, "unit": "mg/L"}
    ]}
  ]
}
